Test system: human embryonic stem cell line H1
Test: OpenArray qRT-PCR mRNA expression in differentiating H1 cells
Type: cell-based
Details: Example 5, condition A, beginning of Stage 6, 100 nM
Experimental: In addition to monitoring the metabolic profile of the spent media through daily sampling, representative samples of cells were obtained throughout the differentiation process and tested for mRNA expression of a panel of genes via Applied Biosystems® OpenArray® (Life Technologies) and calculated as fold difference in expression compared to pluripotent ISM cells after 24 hours in culture from the beginning of the experiment. FIGS. 2A through M depict data for expression of the following genes in cells differentiated through the first day of Stage 5: PDX1 (FIG.2A); NKX6.1 (FIG. 2B); PAX4 (FIG. 2C); PAX6 (FIG. 2D); NEUROG3(NGN3) (FIG. 2E); ABCC8 (FIG. 2F); Chromogranin-A (“CHGA”) (FIG. 2G); G6PC2 (FIG. 2H); IAPP (FIG. 2I); insulin (“INS”) (FIG. 2J); glucagon (“GCG”) (FIG. 2K); PTF1a (FIG. 2L); and NEUROD1 (FIG. 2M).
In addition to determining cell protein expression by flow cytometry, samples throughout Stages 3 and 4 of the differentiation process were tested for mRNA expression of a gene panel using OpenArray® qRT-PCR. […]
Throughout the differentiation process cell samples were collected from the suspension cultures for analysis. Samples were analyzed for mRNA expression (OpenArray® qRT-PCR) and protein expression (flow cytometry and florescent immune-histochemistry).

SMILES: C[C@H](NC(=O)Cc1cc(F)cc(F)c1)C(=O)N[C@@H]1C(=O)N(C)c2ccccc2-c2ccccc21 [gamma secretase inhibitor XX]
- NGN3 expression: second induction of NGN3
